Measurements taken from patent publication US20090082258A1, “Means and Methods for Treating Advanced Stage Neuroblastoma” (priority 2005, published 2009).
Entries after “also recorded” stand apart in the source; their conditions may differ.

How the values were obtained:
various tumour cells [1] = settings: cited from earlier work
[2] = tested on: nuclear histone deacetylases; assay: Accumulation of acetylated histone H4 in SH-EP cells (Western blot); assay type: cell-based; settings: 6 h, 15 mM HC-Toxin [sic]
Protocol: The cells were treated for 6 hours with HC-toxin or the indicated histone deacetylase inhibitors as well as all-trans retinoic acid. Whole-cell extracts were obtained and subjected to Western-Blot analysis using an antibody, which specifically recognizes acetylated histone H4 (H4 Acetyl).
SH-EP-neuroblastoma cells were treated with […] HC-Toxin for 6 h. Subsequently, accumulation of acetylated histone H4 was investigated.

various tumour cells [3] = assay: Antitumoral effects in tumour cells, general statements and comparison with other agents; assay type: cell-based; settings: higher concentration
Protocol: The differentiation inducing agent all-trans retinoic acid has to be administered in a 1000-fold higher concentration compared to HC-toxin, acts differently as compared with compounds of the general formula (I) and causes side effects known as the retinoic acid syndrome.
The compounds having a structure as shown in the general formula (I) elicit the aforementioned antitumoral effects in an extremely low dosage already, i.e. at nanomolar concentrations (5-20 nM), in various tumour cells. The mode of action of the compounds apparently encompasses inhibition of histone deacetylases. This finding is supported by the observation that treatment of MYCN single copy and amplified neuroblastoma cells with a compound of the present invention in nanomolar concentration (e.g. 15 nM) leads to the accumulation of acetylated H4-histones within one to six hours being an indicator for a histone deacetylase inhibitor.

[4] = tested on: SH-EP neuroblastoma cells; assay: Neuronal differentiation of SH-EP neuroblastoma cells (phase contrast microscopy, immunocytochemistry); assay type: cell-based
Protocol: FIG. 1: HC-Toxin induces neuronal differentiation in SH-EP MYCN-single copy neuroblastoma cells. Cells with neurites longer than twice the diameter of the cell body have been deemed as differentiated cells.
(§1) 5×10*4 SH-EP neuroblastoma cells were cultured in RPMI 1640 medium (including 10% FBS, 1% Pen/Strep). After 24 hours of culture, the cells were treated up to 96 h with 10 to 20 nM HC-Toxin or, as solvent control, with methanol (MeOH) at 37° C., 5% CO2. The morphological changes of the cells were investigated using phase contrast microscopy. After 36 h of treatment, neurite outgrowth was observed. After 72 h of treatment, said neurite outgrowth reached its maximum and was constant if treatment was prolonged (not shown). […] More than 95% of the SH-EP neuroblastoma cells differentiate morphologically when treated with 15 nM HC-Toxin (see FIG. 1c).

[5] = tested on: SH-EP neuroblastoma cells; assay: Proliferation of SH-EP neuroblastoma cells; assay type: cell-based; settings: 10 to 20 nM
Protocol: (§2) FIG. 2: Influence of HC-Toxin upon proliferation, cell cycle, and apoptosis of SH-EP neuroblastoma cells.
as §1
(§3) An increase in apoptotic cells from 5% to 20% was observed after 48 h to 72 h of HC-toxin treatment in a dose dependent manner (FIG. 2c).

[6] = tested on: SH-EP neuroblastoma cells; assay: Cell cycle of SH-EP neuroblastoma cells; assay type: cell-based; settings: 15 nM vs control cells
Protocol: as §2, §3

[7] = tested on: SH-EP neuroblastoma cells; assay: Apoptosis of SH-EP neuroblastoma cells; assay type: cell-based; settings: FIG. 2c
Protocol: as §2, §3

primary skin fibroblasts [8] = assay: Proliferation of primary non-transformed skin fibroblasts; assay type: cell-based, human; settings: 10-20 nM, same conditions as SH-EP
Protocol: (§4) FIG. 3: Influence of HC-Toxin upon proliferation and cell cycle of primary non-transformed skin fibroblasts.
(§5) In order to determine the effects of HC-Toxin on “normal” body cells, primary skin fibroblasts were treated under the same conditions.

primary skin fibroblasts [9] = assay: Cell cycle of primary non-transformed skin fibroblasts; assay type: cell-based, human; settings: 15 nM vs methanol control
Protocol: as §4, §5

[10] = tested on: MYCN amplified neuroblastoma cells (Be(2)-C); assay: Proliferation of MYCN amplified neuroblastoma cells Be(2)-C; assay type: cell-based; settings: stronger inhibition than in SH-EP
Protocol: (§6) FIG. 4: Influence of HC-Toxin upon the proliferation of MYCN amplified neuroblastoma cells and cells, which overexpress MYCN. (a) BE(2)-C neuroblastoma cells, (b) WAC2 neuroblastoma cells, and (c) Tet21N neuroblastoma cells.
(§7) MYCN amplified neuroblastoma cells (Be(2)-C), MYCN stably transfected SH-EP-neuroblastoma cells (WAC2) as well as SH-EP cells having an tetracycline inducible MYCN (Tet21N) were treated by HC-Toxin.

[11] = tested on: MYCN stably transfected SH-EP-neuroblastoma cells (WAC2); assay: Proliferation of MYCN stably transfected SH-EP neuroblastoma cells WAC2; assay type: cell-based; settings: stronger inhibition than in SH-EP
Protocol: as §6, §7

[12] = tested on: SH-EP cells having an tetracycline inducible MYCN (Tet21N); assay: Proliferation of SH-EP cells with tetracycline inducible MYCN (Tet21N); assay type: cell-based; settings: stronger inhibition than in SH-EP
Protocol: as §6, §7

CC(/C=C/C(=O)NO)=C\[C@@H](C)C(=O)c1ccc(N(C)C)cc1 [trichostatin A]
cytotoxic effects (various tumour cells [1]): strong cytotoxic effects

CC1=C(/C=C/C(C)=C/C=C/C(C)=C/C(=O)O)C(C)(C)CCC1 [all-trans retinoic acid, reference compound]
accumulation of acetylated histone H4 [2]: no induction of hyperacetylation of histone H4
concentration to be administered compared to HC-toxin (various tumour cells [3]): 1000 fold

CC1NC(=O)C(C)NC(=O)C2CCCN2C(=O)C(CCCCCC(=O)C2CO2)NC1=O (stereo not drawn) [HC-Toxin, Helminthosporium carbonum toxin]
SH-EP neuroblastoma cells that differentiate morphologically ([4]; 15 nM HC-Toxin, neurites longer than twice the diameter of the cell body): More than 95%
time of treatment after which neurite outgrowth reached its maximum ([4]; 10 to 20 nM, SH-EP cells): 72 h
time of treatment after which neurite outgrowth was observed ([4]; 10 to 20 nM, SH-EP cells): 36 h
inhibition of SH-EP neuroblastoma cell proliferation [5]: inhibits cell proliferation in a concentration dependent manner; also recorded: concentration-dependent inhibition
cell cycle distribution of SH-EP cells [6]: accumulation of the HC-Toxin treated cells in the G0/1 phase
induction of apoptosis in SH-EP cells [7]: induces apoptosis in a concentration dependent manner
proliferation of primary skin fibroblasts (primary skin fibroblasts [8]): No significant changes
proliferation of primary skin fibroblasts (primary skin fibroblasts [8]; listed as HC-toxin): has no influence upon the proliferation
cell cycle of primary skin fibroblasts (primary skin fibroblasts [9]): does not alter the cell cycle; also recorded: No significant changes
inhibition of proliferation of Be(2)-C cells [10]: efficiently inhibits proliferation
inhibition of proliferation of WAC2 cells [11]: efficiently inhibits proliferation
inhibition of proliferation of Tet21N cells [12]: efficiently inhibits proliferation
accumulation of acetylated histone H4 [2]: induces hyperacetylation of histone H4
accumulation of acetylated histone H4 ([2]; listed as iHC-Toxin): induce accumulation of acetylated histone H4

CCCC(CCC)C(=O)O [valproic acid]
efficient concentration (various tumour cells [1]; not achievable in vivo): only efficient in millimolar concentrations
